Data as given in patent publication US5378846A, “1,2,3,4-tetrahydropyrrolo-[1,2-a]-pyrazine derivatives” (Russian-American Institute For New Drug Development, priority 1993, dated 1995).
Several values for one entry are separate records, joined by “and”; a condition that tells them apart may be missing. Identical values can stand only once.

Columns and labels:
[1] = system: duration of immobility in mice; assay: Behavioural despair test (forced swimming); type: in vivo, outbred male mice; conditions: for Influence on duration of immobility, in words: forced swimming; for The duration of immobility: i.p.
Experimental: (§1) Compounds according to the present invention were checked for their influence on gross behaviour. The experiments described herein (Examples 11, 12, 13, 14, and 15) were carried out using outbred male mice weighing approximately 18-24 g. Each substance was administered intraperitoneally 45 min. before the experiment. Locomotor activity was estimated individually for each animal for 3 min. using an actometer `Era-1` (Russia).
The influence of compounds on behavioral despair was studied according to the model described by Porsolt et al., Arch. int. pharmacodyn.et ther., 228, 327-[…] (1977), which is incorporated herein by reference. Mice, when forced to swim in a cylinder of water without the possibility of escape, rapidly adopt a characteristic immobile posture. […] The only movements they make are those necessary to keep their heads above water.

[2] = system: locomotor activity in mice; assay: Locomotor activity in mice (actometer); type: in vivo, outbred male mice; conditions: i.p.
Experimental: as §1

[3] = system: rat behavior in Vogel conflict test; assay: Vogel conflict test (anxiolytic activity, punished responses in water-deprived rats); type: in vivo, outbred male albino rats; conditions: rat
Excerpt: Compounds according to the present invention were checked for their anxiolytic activity. Behaviour suppressed by punishment is a very reliable indicator of the anxiolytic activity of drugs. A variant of the conflict situation test was used to reveal anxiety in water-deprived rats whose licking was suppressed by shock (see Vogel et al., Phychopharmacologia, 21, 1-7 (1971); J. E. Barrett in Animal Models in Psychopharmacology, Advances in Pharmacological Sciences, 1991; and Birkhauser Verlag, Basel, p. 37.52, Molodavkin et al., Exper. Clin. Pharmacol., 56, (1993), which are incorporated herein by reference).
The experiments were carried out using outbred male albino rats (180-220 g). This experiment involved previous training of water-deprived rats to drink water from a trough. Next day electrical stimulation was given delivering 0.5 mA electric shocks through the trough and metal grid floor of the experimental chamber. A conflict situation was created by clashing motivations (survival and self defense). The degree of anxiolytic activity was estimated by the measurement of the amount of punished licks for 10 min. Each compound was administered intraperitoneally 45 min. before the conflict test.

Acute toxicity in mice = conditions: mouse, in vivo, ip, mice, i.p., lethality 24 hours later, Table 6 (range in brackets beside); read-out: LD50
Experimental: as §1
The compounds of the present invention were checked for acute toxicity in outbred male mice (18-22 g.). They were administered intraperitoneally and the lethality was estimated 24 hours later (Table 6). In the dose range of 500-1000 mg/kg i.p. Compound 1 caused death in 50% of the animals. Compound 1 is almost 5 times less toxic than other compounds.

memory formation in rats = assay: Passive avoidance test, step-through (memory formation, retention); type: in vivo, outbred male albino rats; conditions: rat, 5.0 mg/kg i.p., retention 24 hours later, 3 min
Experimental: The influence of Compound 1 on memory formation was studied in a passive avoidance test, step-through paradigm (equipment of Laffaette Co., USA). The experiments were carried out on outbred male albino rats ([…]). Compound 1 and other drugs were administered intraperitoneally 45 min. before the passive avoidance training. The retention was tested 24 hours later learning (painful electroshock in the dark compartment) by the measurement of the time spent in the dark compartment for 3 min.

[4] = system: aggressive behavior in mice; assay: Antiaggressive activity (threshold of aggressive behavior, electrified floor); type: in vivo, outbred male mice
Experimental: as §1
The effect of Compound 1 on the threshold of the aggressive behavior was determined in the experiment on outbred mice (R. Tedesci et al., J. Pharmacol. Exp. Ther., 125, 28-34, (1959), which is incorporated herein by reference). The paired mice were placed on the electrified floor. The strength of the current, which provoked the fighting, was recorded.

motor behavior in mice [5] = assay: Horizontal wire test (coordination of movements and myorelaxation); conditions: mice
Experimental: (§2) The influence of Compound 1 on the motor behavior was studied according to a "rotating rod" test and a "horizontal wire" test in outbred male mice (18-22 g). A rotating rod (2 cm diameter and 5 rpm speed) was used. Acquisition was defined as the ability to remain on the rotating rod for 2 min. Each animal had two trials. According to the "horizontal wire" test a mouse was hung on the wire (0.3 cm. diameter, wire was fixed horizontally 40 cm above the floor) by the forepaws. The ability to pull the hind legs up to the wire for 2 min. was a criterion of test performance.

[6] = as above; conditions: mouse, in vivo
Experimental: as §2

[7] = Rotating rod test (coordination of movements and myorelaxation); conditions: mouse, in vivo
Experimental: as §2

motor behavior in mice [8] = assay: as above; conditions: mice
Experimental: as §2

[9] = 2.0 mg/kg i.p., 45 min before test, Table 1

CC(=O)N1CCn2c(CN(C)C)ccc2C1 [Compound 2, hydrooxalate of 2-acetyl-6-(dimethylaminomethyl)-1,2,3,4-tetrahydropyrrolo-[1,2-a]-pyrazine]
Influence on duration of immobility, in words [1]: increased the duration of immobility | The duration of immobility ([1]; 10.0 mg/kg): 203.4 ± 14.1 s | The duration of immobility ([1]; 20.0 mg/kg): 234.9 ± 12.6 s | Influence on locomotor activity, in words [2]: decrease locomotor activity | The number of movements for 3 min., horizontal activity ([2]; 10.0 mg/kg): 524.4 ± 36.9 | The number of movements for 3 min., vertical activity ([2]; 10.0 mg/kg): 10.0 ± 2.1 | The number of movements for 3 min., horizontal activity ([2]; 20.0 mg/kg): 489.1 ± 9.7 | The number of movements for 3 min., vertical activity ([2]; 20.0 mg/kg): 22.4 ± 3.0 | The number of punished responses [3, 9]: 63.00 ± 35.38 | LD50 at 24 h (Acute toxicity in mice): 340 mg/kg

CC(=O)N1CCn2c(CN3CCCCC3)ccc2C1 [Compound 3, 2-Acetyl-6-(Piperidinomethyl)-1,2,3,4-Tetrahydropyrrolo-[1,2-]-Pyrazine]
Influence on duration of immobility, in words [1]: increased the duration of immobility | The duration of immobility ([1]; 10.0 mg/kg): 209.3 ± 6.5 s | The duration of immobility ([1]; 20.0 mg/kg): 254.6 ± 10.9 s | Influence on locomotor activity, in words [2]: decrease locomotor activity | The number of movements for 3 min., horizontal activity ([2]; 10.0 mg/kg): 532.5 ± 42.1 | The number of movements for 3 min., vertical activity ([2]; 10.0 mg/kg): 8.1 ± 1.9 | The number of movements for 3 min., horizontal activity ([2]; 20.0 mg/kg): 442.7 ± 30.3 | The number of movements for 3 min., vertical activity ([2]; 20.0 mg/kg): 9.2 ± 4.4 | The number of punished responses [3, 9]: 22.00 ± 4.86 | LD50 at 24 h (Acute toxicity in mice): 414 mg/kg

CC(=O)N1CCn2c(CN3CCOCC3)ccc2C1 [Compound 4, 2-Acetyl-6-(Morpholinomethyl)-1,2,3,4-Tetrahydropyrrolo-[1,2-a]-Pyrazine]
Influence on duration of immobility, in words [1]: did not show any activity | The duration of immobility ([1]; 10.0 mg/kg): 197.3 ± 5.9 s | The duration of immobility ([1]; 20.0 mg/kg): 202.7 ± 6.7 s | The number of movements for 3 min., horizontal activity ([2]; 10.0 mg/kg): 479.6 ± 22.8 | The number of movements for 3 min., vertical activity ([2]; 10.0 mg/kg): 17.6 ± 6.9 | The number of movements for 3 min., horizontal activity ([2]; 20.0 mg/kg): 564.5 ± 22.5 | The number of movements for 3 min., vertical activity ([2]; 20.0 mg/kg): 24.7 ± 5.6 | The number of punished responses [3, 9]: 9.25 ± 1.75 | LD50 at 24 h (Acute toxicity in mice): 105 mg/kg

CN(C)Cc1ccc2n1CCN(C(=O)c1ccccc1)C2 [Compound 5, 2-Benzoyl-6-(Dimethylaminomethyl)-1,2,3,4-Tetrahydropyrrolo-[1,2-]-Pyrazine]
Influence on duration of immobility, in words [1]: reduced the duration of immobility | The duration of immobility ([1]; 10.0 mg/kg): 189.4 ± 10.3 s and 218.3 ± 12.1 s | The duration of immobility ([1]; 20.0 mg/kg): 216.4 ± 14.2 s | The number of movements for 3 min., horizontal activity ([2]; 10.0 mg/kg): 676.1 ± 34.5 | The number of movements for 3 min., vertical activity ([2]; 10.0 mg/kg): 36.1 ± 5.8 | The number of movements for 3 min., horizontal activity ([2]; 20.0 mg/kg): 659.7 ± 32.7 | The number of movements for 3 min., vertical activity ([2]; 20.0 mg/kg): 36.6 ± 8.6 | The number of punished responses [3, 9]: 85.25 ± 32.04 | LD50 at 24 h (Acute toxicity in mice): 77 mg/kg

O=C(O)C(=O)O.O=C(c1ccccc1)N1CCn2c(CN3CCCCC3)ccc2C1 [Compound 6, 2-Benzoyl-6-(Piperidinomethyl)-1,2,3,4-Tetrahydropyrrolo-[1,2-a]-Pyrazine Hydrooxalate]
Influence on duration of immobility, in words [1]: reduced the duration of immobility | The duration of immobility ([1]; 1.0 mg/kg): 184.3 ± 11.7 s | The duration of immobility ([1]; 10.0 mg/kg): 201.7 ± 13.1 s | The number of movements for 3 min., horizontal activity ([2]; 10.0 mg/kg): 693.0 ± 25.3 | The number of movements for 3 min., vertical activity ([2]; 10.0 mg/kg): 16.5 ± 6.2 | The number of movements for 3 min., horizontal activity ([2]; 20.0 mg/kg): 644.0 ± 30.4 | The number of movements for 3 min., vertical activity ([2]; 20.0 mg/kg): 19.9 ± 3.4 | The number of punished responses [3, 9]: 30.75 ± 13.17 | LD50 at 24 h (Acute toxicity in mice): 389 mg/kg

O=C(O)C(=O)O.O=C(c1ccccc1)N1CCn2c(CN3CCOCC3)ccc2C1 [Compound 7, 2-Benzoyl-6-(Morpholinomethyl)-1,2,3,4-Tetrahydropyrrolo-[1,2-a]-Pyrazine Hydrooxalate]
Influence on duration of immobility, in words [1]: did not show any activity | The duration of immobility ([1]; 10.0 mg/kg): 169.3 ± 11.8 s | The duration of immobility ([1]; 20.0 mg/kg): 147.8 ± 7.1 s | Influence on locomotor activity, in words [2]: decrease locomotor activity | The number of movements for 3 min., horizontal activity ([2]; 10.0 mg/kg): 475.1 ± 11.2 | The number of movements for 3 min., vertical activity ([2]; 10.0 mg/kg): 13.7 ± 2.5 | The number of movements for 3 min., horizontal activity ([2]; 20.0 mg/kg): 474.0 ± 14.7 | The number of movements for 3 min., vertical activity ([2]; 20.0 mg/kg): 12.4 ± 3.8 | The number of punished responses [3, 9]: 25.00 ± 5.99 | LD50 at 24 h (Acute toxicity in mice): 115 mg/kg

CN1C(=O)CN=C(c2ccccc2)c2cc(Cl)ccc21 [Diazepam, reference compound]
The time spent in dark compartment (memory formation in rats): 127.7 ± 21.1 s | The time spent in light compartment (memory formation in rats): 52.3 ± 11.3 s | Aggression threshold ([4]; 1.0 mg/kg i.p.): 45.4 ± 9.5 V | Aggression threshold ([4]; 5.0 mg/kg i.p.): 92.4 ± 15.6 V | The number of punished responses ([3]; i.p., dose 1.0 mg/kg, Table 2): 22.25 ± 10.89 | The number of punished responses ([3]; i.p., dose 2.0 mg/kg, Table 2): 47.25 ± 22.49 | Disturbances according to horizontal wire test, effect in % (motor behavior in mice [5]; dose 1.0): 20% | Disturbances according to horizontal wire test, effect in % (motor behavior in mice [5]; dose 2.0): 40% | Disturbances according to horizontal wire test, effect in % (motor behavior in mice [5]; dose 5.0): 80%

CN1CCN=C(c2ccccc2)c2cc(Cl)ccc21 [Medazepam, reference compound]
The time spent in dark compartment (memory formation in rats): 142.6 ± 19.58 s | The time spent in light compartment (memory formation in rats): 37.4 ± 19.5 s | Aggression threshold ([4]; 5.0 mg/kg i.p.): 32.2 ± 5.25 V | Aggression threshold ([4]; 10.0 mg/kg i.p.): 43.1 ± 4.2 V | TD50 [6]: 7.5 mg/kg | Disturbances according to horizontal wire test, effect in % (motor behavior in mice [5]; dose 2.5): 33% | Disturbances according to horizontal wire test, effect in % (motor behavior in mice [5]; dose 5.0): 50% | Disturbances according to horizontal wire test, effect in % (motor behavior in mice [5]; dose 10.0): 75% | TD50 [7]: 5.2 mg/kg | Disturbances according to rotating rod test, effect in % (motor behavior in mice [8]; dose 2.5): 40% | Disturbances according to rotating rod test, effect in % (motor behavior in mice [8]; dose 5.0): 50% | Disturbances according to rotating rod test, effect in % (motor behavior in mice [8]; dose 10.0): 96%
